Series [1] concerns NIH 3T3 cells. Type of series: cell-based, mouse. The protocol: For assessment of necrosis and apoptosis, cells were washed twice with PBS, suspended in 0.14 M NaCl/10 mM Na-Hepes (pH 7.4/2.5 mM CaCl2 at 4° C. at a density of 10^6 cell per ml, and stained with 5 μg/ml propidium iodide and FITC-conjugated annexin V (Becton Dickinson) for 15 min at room temperature Immediately thereafter, cells were washed and analyzed by using a FACSCalibur fluorescence-activated cell scanner (Becton Dickinson). For assessment of cell-cycle profiles, cells were washed twice with PBS, fixed, and permeabilized in 70% (vol/vol) ethanol for 30 min at 4° C., and incubated in PBS containing 10 μg/ml propidium iodide and 30 units/ml RNase A at 37° C. for 30 min. For both measurements, detector gain and compensation settings were adjusted to minimize autofluorescence of unstained cells and channel crosstalk. For cell-cycle analysis, the propidium iodide channel was gated based on light scattering to exclude clumped cells, which may artifactually skew the observed fluorescence intensity.
Cells were seeded at a density of 5,000 cells per well and maintained in 100 μl per well in 96-well plates. […] Production of formazan was quantified by using a μ Quant plate reader (Bio-Tek Instruments) by monitoring the difference in absorbance at 492 and 690 nm, as referenced to the difference in absorbance of samples containing 50 μl of RPMI medium 1640 without phenol red. […]

For series [2], the system named is FaDu tumors in nude mice. It is filed as in vivo. How it is done: Female 5- to 7-week-old athymic NCr-nu/nu mice were obtained from Taconic Farms. Human FaDu cells, derived from a hypopharyngeal squamous cell carcinoma, were obtained from the American Type Culture Collection. Mice were inoculated s.c. into the right flank with 0.5×10^6 cells in 50 μl PBS, and were randomly segregated into two groups of 10 mice each. After 1 week of engraftment, treatment was administered orally each day at a dose of 40 μg/kg Ribavirin. Tumor size was ascertained by measuring tumor diameter, and statistical significance was ascertained by using a paired t test.

Series [3] deals with normal bone marrow myeloid progenitors. Description: clonogenic assay, primary CD34+ progenitors. It is filed as cell-based, human. As to conditions: micromolar concentrations. An excerpt:
(§1) Acute myelogenous leukemia (AML) M1, M5, and normal bone marrow specimens were isolated from patients and processed as described. Primary AML cells were obtained from peripheral blood of patients at the Markey Cancer Center, University of Kentucky Medical Center (Lexington, Ky.). Normal bone marrow was obtained as waste material after pathological analysis, surgical marrow harvest, or from the National Disease Research Interchange (Philadelphia). All tissues were obtained with the approval of the Institutional Review Board and appropriate informed consent. Frozen CD34^+ progenitor cells were thawed in Iscove's modified Dulbecco's (IMD) medium supplemented with 10% (vol/vol) FBS. […] Colonies with >20 cells were counted manually and experiments were repeated four times.

For series [4], the system named is AML-M1 progenitor cells. Briefly: clonogenic assay, primary CD34+ progenitors. Type of series: cell-based, human. As to conditions: at ca. 1 uM / similar concentrations.
Description: as §1

The subject of series [5] is FaDu cells. Briefly: Western blot of FaDu cells treated in culture. Type of series: cell-based, human. The conditions noted are these: 48 hours. How it is done:
FaDu cells were grown in culture as described previously and treated with Ribavirin for 48 hours prior to preparation of protein extracts and western blot analysis.

The conditions of series [6]: cited from earlier work.
The subject of series [7] is AML-M5 progenitor cells. Description: clonogenic assay, primary CD34+ progenitors. Type of series: cell-based. As to conditions: Homo sapiens, 336 h; 14 days; read-out: apparent IC50 colony formation.
Description: as §1

The subject of series [8] is cellular guanosine pools. As to conditions: read-out: EC50 depletion of cellular guanosine pools; cited from earlier work.
Series [9] deals with eIF4E-transfected NIH 3T3 cells. Briefly: transformation assay, anchorage-dependent foci formation. Type of series: cell-based. The conditions noted are these: Mus musculus, NIH3T3, read-out: apparent EC50 suppression of eIF4E-mediated transformation.

The values that follow come from patent publication US10472677B2, “Translational dysfunction based therapeutics” (Translational Therapeutics, Inc., priority 2005, dated 2019).

Entries after “also recorded” stand apart in the source; their conditions may differ.

As a reminder, the IC50 is the midpoint of a concentration-inhibition curve. By EC50 is commonly meant the concentration that produces a half-maximal response. Regarding `NC(=O)c1ncn([C@@H]2O[C@H](CO)[C@@H](O)[C@H]2O)n1` [Ribavirin, 1-β-D-ribofuranosyl-1,2,4-triazole-3-carboxamide], the “proportion of cells restricted to the G1 phase” value in [1] (0.1 μM, untreated 58%) is on record as 91%. For the same compound, in [1] (mouse), the “concentration with significant effects on viability and metabolism” value is at least 100 µM. The “mean tumor volume, fold less than untreated control” value in series [2] (40 ug/kg orally daily, after 20 days, P=0.023) stood at 6 fold. Moreover, the mean body concentration result in series [2] (40 ug/kg orally each day) is listed as “ca. 1 uM”. Further, in series [3], the “colony formation of normal bone marrow progenitors” value is recorded as “no effect; also recorded: lack of an effect”. In addition, in [4], the “colony formation of AML-M1 progenitors” value was “no effect; also recorded: failed to repress colony formation”. Besides, in [5], the “Actin and eIF4E protein levels” value is “remain unchanged”; the “protein level of NBS1, Cyclin D1 and ODC” value was “decreased”. For the same compound, the “solubility in anhydrous ethanol” value in series [6] (anhydrous ethanol) was “sparingly soluble”. Besides, the solubility in water entry in [6] (water) is recorded as “freely soluble”. Besides, the IC50 in [7] is around 1 µM. The concentration for a half-maximal effect (EC50) in [8] is around 100 µM. Besides, in [9], the EC50 lay in the range of 0.1 to 1 µM.
